From US20020091086A1, “Peptides that block viral infectivity and methods of use thereof” (priority 1999, published 2002)
Where two headings read alike, the source gives them in different places. Marks after values point to notes of the source that are not given here. Peptide text beside a SMILES is read from it.

Columns and labels:
HIV-1 [1] = settings: H9 cells; for HIV-1 Syncytia: 100 μM; for HIV-1 syncytia formation, result in words: summary of Experiments 1-2
Description: (§1) In this example, the methods that were used to analyze the ability of various tripeptides to inhibit HIV-1, HIV-2, and SIV replication are disclosed. In Experiments 1 and 2, approximately 200,000 H9 cells were infected with HIV-1, HIV-2 or SIV at 25 TCID50 to test the inhibitory effect of the following synthesized tripeptides LKA-NH2, ILK-NH2, GPQ-NH2, GHK-NH2, GKG-NH2, ACQ-NH2, CQG-NH2, ARV-NH2, KAR-NH2, HKA-NH2, GAT-NH2, KAL-NH2, and GPG-NH2. Accordingly, the H9 cells were resuspended with or without the different peptides (approximately 100 μM) in 1 ml of RPMI 1640 medium supplemented with 10% (v/v) heat-inactivated fetal bovine serum (FBS), penicillin (100 u/ml), and streptomycin (100 u/ml), all available through GIBCO, and Polybrene (2 μg/ml), available through Sigma. Thereafter, viruses were added at 25 TCID50 in a volume of 20-30μl. Cells were incubated with virus at 37° C. for 1 hr then pelleted at 170×g for 7 minutes. The cells were then washed three times in RPMI medium without peptides at room temperature and pelleted at 170×g for 7 minutes, as above. After the final wash, the cells were resuspended in RPMI culture medium containing the peptides in a 24-well plate (Costar corporation) and were kept at 37° C. in 5% CO2 with humidity.
(§2) Culture supernatants were collected and analyzed when the medium was changed at 4, 7, 10, and 14 days post infection. To monitor the replication of virus, reverse transcriptase (RT) activity in the supernatants was assayed using a commercially available Lenti-RT activity kit. (Cavidi Tech, Uppsala, Sweden). The amount of RT was determined with the aid of a regression line of standards. The results are presented as absorbance values (OD) and higher absorbance indicates a higher protein concentration and greater viral infection. Syncytium formation was also monitored by microscopic examination.

HIV-1 [2] = settings: H9 cells; for Day 7 RT HIV-1 / Day 10 RT HIV-1: 100 μM; for HIV-1 infection, result in words: summary of Experiments 1-5
Description: as §1, §2
In Experiment 3, (Table 4), approximately 200,000 H9 cells were infected with HIV-1, HIV-2 or SIV at 25 TCID50 to test the inhibitory effect of different concentrations of peptides GPG-NH2, GKG-NH2 and CQG-NH2 and combinations of these peptides (the indicated concentration corresponds to the concentration of each tripeptide). As above, H9 cells were resuspended with or without the different peptides at varying concentrations in 1 ml of RPMI 1640 medium supplemented with 10% (v/v) heat-inactivated fetal bovine serum (FBS), penicillin (100 u/ml), and streptomycin (100 u/ml), and Polybrene (2 μg/ml). Thereafter, viruses were added at 25 TCID50 in a volume of 20-30 μl. Cells were incubated with the indicated virus at 37° C. for 1 hr then pelleted at 170×g for 7 minutes. The cells were then washed three times in RPMI medium without peptides at room temperature and pelleted at 170×g for 7 minutes, as above. After the final wash, the cells were resuspended in RPMI culture medium containing the peptides in a 24-well plate (Costar corporation) and kept at 37° C. in 5% CO2 with humidity.
Culture supernatants were collected when the medium was changed at 4, 7, and 11 days post infection. As above, the replication of each virus was monitored by detecting reverse transcriptase (RT) activity in the supernatants using the Lenti-RT activity kit. (Cavidi Tech). The amount of RT was determined with the aid of a regression line of standards. The results are presented as absorbance values (OD) and higher absorbance indicates a higher protein concentration and greater viral infection.
In Experiment 4, (Table 5) approximately 200,000 H9 cells were infected with HIV-1 at 25 TCID50 to test the inhibitory effect of different concentrations of peptides GPG-NH2, GKG-NH2 and CQG-NH2 and combinations of these peptides (the indicated concentration corresponds to the total concentration of tripeptide).

HIV-2 = HIV-2 infectivity assay in H9 cells, RT activity in supernatant; type: cell-based
SIV = SIV infectivity assay in H9 cells, RT activity in supernatant; type: cell-based
HIV-1 [3] = settings: 100 μM, HUT78 cells
Protocol: In experiment 6 (Table 7 and FIG. 1), approximately 200,000 HUT78 cells were infected with HIV-1 at 25 TCID50 to test the inhibitory effect of GPG-NH2, RQG-NH2, KQG-NH2, ALG-NH2, GVG-NH2, VGG-NH2, ASG-NH2, SLG-NH2, and SPT-NH2. The HUT cells were resuspended in lml of RPMI 1640 medium supplemented with 10% (v/v) heat-inactivated fetal bovine serum (FBS, GIBCO), penicillin (100 u/ml), streptomycin (100 u/ml) and Polybrene (Sigma, 2 μg/ml) with or without the presence of the different small peptides (100 μM) mentioned above. Thereafter, the HIV-1 virus was added at 25 TCID50 in a volume of 20 μl. Cells were incubated with the virus at 37° C. for one hour and, subsequently, the cells were pelleted at 170×g for seven minutes. The cells were then washed three times in RPMI medium without peptides at room temperature by cell sedimentation at 170×g for seven minutes, as above. After the final wash, the cells were resuspended in RPMI culture medium containing the peptides in 24-well plate (Costar corporation) and were kept at 37° C. in 5% CO2 with humidity. Culture supernatants were collected when medium was changed at day 4, 7, and 11 post infection and viral p24 production was monitored by using an HIV-1 p24 ELISA kit (Abbott Laboratories, North Chicago, USA).

Compound	HIV-1 Syncytia (HIV-1 [1]; Experiment 1)	HIV-1 Syncytia (HIV-1 [1]; Experiment 2)	HIV-1 syncytia formation, result in words (HIV-1 [1])	Day 7 RT HIV-1 (HIV-1 [2]; Experiment 1)	Day 10 RT HIV-1 (HIV-1 [2]; Experiment 1)	Day 7 RT HIV-1 (HIV-1 [2]; Experiment 2)	Day 10 RT HIV-1 (HIV-1 [2]; Experiment 2)	HIV-1 infection, result in words (HIV-1 [2])	Day 7 RT HIV-2 (HIV-2; Experiment 1, 100 μM)	Day 10 RT HIV-2 (HIV-2; Experiment 1, 100 μM)	Day 7 RT HIV-2 (HIV-2; Experiment 2, 100 μM)	Day 10 RT HIV-2 (HIV-2; Experiment 2, 100 μM)	Day 7 RT SIV (SIV; Experiment 1, 100 μM)	Day 10 RT SIV (SIV; Experiment 1, 100 μM)	Day 7 RT SIV (SIV; Experiment 2, 100 μM)	Day 10 RT SIV (SIV; Experiment 2, 100 μM)	p24 (HIV-1 [3]; Experiment 6, Day 7 HIV-1)	reduction (%) (HIV-1 [3]; Experiment 6, Day 7 HIV-1)	HIV-1 infection, result in words (HIV-1 [3]; summary of Experiment 6)
Gly-His-Lys [GHK-NH2]	pos	pos	failed to prevent infection and HIV-1 syncytia formation	0.289 OD	2.151 OD	0.829 OD	3.013 OD	failed to prevent infection	3.522 OD	2.931 OD	1.936 OD	2.418 OD	0.097 OD	2.384 OD	0.396 OD	2.394 OD			
CC(C)C[C@H](NC(=O)[C@H](C)N)C(=O)NCC(N)=O [ALG-NH2, alanyl-leucyl-glycine amide] (H-Ala-Leu-Gly-NH2)																	42 pg/mL	~100%	inhibited and/or prevented HIV-1 infection
Lys-Ala-Arg [KAR-NH2]	pos	pos		0.380 OD	2.779 OD	0.753 OD	2.928 OD		3.419 OD	2.640 OD	1.904 OD	2.742 OD	0.266 OD	1.722 OD	1.034 OD	2.672 OD			
Lys-Ala-Leu [KAL-NH2]	pos	pos		0.246 OD	1.995 OD	0.999 OD	2.791 OD	failed to prevent infection	3.372 OD	2.749 OD	1.757 OD	2.383 OD	1.091 OD	2.524 OD	0.511 OD	2.663 OD			
Leu-Lys-Ala [LKA-NH2]	pos	pos		0.568* OD	2.429 OD	0.894* OD	2.989 OD	did not prevent HIV infection	3.649 OD	2.769 OD	1.689 OD	2.637 OD	3.577 OD	2.452 OD	0.724 OD	2.797 OD			
Iso-Leu-Lys [ILK-NH2]	pos	pos		0.365 OD	2.033 OD	0.581 OD	2.950 OD		3.467 OD	2.791 OD	1.692 OD	2.557 OD	3.180 OD	2.255 OD	0.515 OD	2.632 OD			
Ala-Cys-Gln [ACQ-NH2]	pos	pos		0.117 OD	0.904 OD	0.606 OD	2.831 OD	did not prevent HIV infection	3.418 OD	2.753 OD	1.661 OD	2.505 OD	1.241 OD	2.746 OD	0.612 OD	2.606 OD			
Gly-Pro-Gln [GPQ-NH2]	pos	pos	failed to prevent infection and HIV-1 syncytia formation	0.204 OD	1.965 OD	0.884 OD	2.848 OD	did not prevent HIV infection	3.692 OD	2.734 OD	1.511 OD	2.382 OD	1.542 OD	2.176 OD	0.574 OD	2.319 OD			
His-Lys-Ala [HKA-NH2]	pos	pos		0.312 OD	2.546 OD	1.081 OD	2.794 OD	did not prevent HIV infection	3.408 OD	2.669 OD	1.678 OD	2.560 OD	0.416 OD	2.520 OD	0.455 OD	2.623 OD			
Gly-Ala-Thr [GAT-NH2]	pos	pos	failed to prevent infection and HIV-1 syncytia formation	0.116 OD	1.565 OD	0.776 OD	2.800 OD	failed to prevent infection	3.461 OD	2.835 OD	1.707 OD	2.565 OD	0.892 OD	2.343 OD	0.572 OD	2.776 OD			
Ala-Arg-Val [ARV-NH2]	pos	pos		0.156 OD	1.528 OD	0.618 OD	2.829 OD	failed to prevent infection	3.380 OD	3.003 OD	2.237 OD	2.628 OD	0.210 OD	1.172 OD	0.212 OD	3.004 OD			
